# Assay results taken from US20170204038A1, “3-(4-ISOBUTYL-2-METHYLPHENYL) PROPANAL AS PERFUME INGREDIENT” (Givaudan, S.A., priority 2013, published 2017).
# Assays:
# [1] = tested on: mice; details: cited from earlier work
# [2] = tested on: primates; details: cited from earlier work
# [3] = tested on: guinea-pigs; details: cited from earlier work
# [4] = tested on: male rats; details: rat, in vivo; cited from earlier work
# [5] = tested on: rat hepatocytes; experiment: In vitro metabolism study in rat hepatocytes in suspension (GC-MS / LC-MS); details: for Residual test compound: male, Sprague-Dawley, rat, 4 h, 100 μM
# Description: In order to study in vitro metabolism in rat hepatocytes Lilial™ and the compound of the present invention are incubated in presence of rat hepatocytes in suspension. Decrease of Lilial™ and the compound of the present invention, and formation of the corresponding benzoic acid derivative may be analysed by GC-MS.
# Cryopreserved hepatocytes from male rats (Sprague Dawley; Lifetechnologies) were defrozen, washed in Cyropreserved Hepatocytes Recovery Medium (CHRM; Lifetechnologies) and suspended in Williams E Medium (WEM; Lifetechnologies). Lilial™, or the compound of formula (I) (final concentration: 100 μM) were added to the cells (1×10^6 viable cells/ml) and suspensions were incubated up to 4 hours at 37° C. on a shaker in duplicate. Metabolism of testosterone was monitored as positive control. Decrease of the test compounds and formation of the corresponding benzoic acid derivative was determined by GC-MS analysis of methyl-esters formed after derivatisation with trimethylsilyl-diazomethane (Sigma-Aldrich) in methanol. The test compounds react with diazomethane yielding a methyl-ketone which was used for the quantification of Lilial™ and the compound of formula (I). Metabolism was stopped with ice cold 1 M HCl, samples were extracted with tert-butyl methyl ether (MTBE) and analysed by GC-MS. Incubations containing testosterone as control were also stopped with ice cold 1 M HCl, centrifuged to separate the cells, filtrated and the decrease of testosterone analysed by LC-MS. To quantify decrease of the test substances and formation of benzoic acid metabolites, calibration curves of reference materials (Lilial™ and the compound of formula (I), tert-butyl benzoic acid (Fluka) was prepared in hepatocyte incubation medium and analysed like the hepatocyte samples.
# [6] = tested on: dogs; details: dog, in vivo; cited from earlier work
# [7] = Odour Value (ratio of vapour pressure to detection threshold concentration)
# Text: The compound of formula (I) is a particularly impactful perfume ingredient. The impact that a perfume ingredient exerts is related to its Odour Value. Odour Value is the ratio of vapour pressure to detection threshold concentration.
# [8] = tested on: fatty acid synthesis; details: in vitro; cited from earlier work
# [9] = tested on: male rats; details: cited from earlier work
# [10] = tested on: glucose synthesis; details: in vitro; cited from earlier work
structure (smiles),measurement,setting,value
"CC(C=O)Cc1ccc(C(C)(C)C)cc1 (centres unmarked) [Lilial™, 3-(4-tert-butylphenyl)-2-methylpropanal]",effects in studies with mice,[1],No effects
same,effects in studies with primates,[2],No effects
same,effects in studies with guinea-pigs,[3],No effects
same,toxic effects on the reproductive organs,[4],toxic effects
same,Residual test compound,[5],0 µM
same,toxic effects on the reproductive organs,[6],toxic effects
same,Odour Value,[7],"32,978"
"Cc1cc(CC(C)C)ccc1CCC=O [Compound of formula (I), 3-(4-isobutyl-2-methylphenyl)propanal]",Residual test compound,[5],0 µM
same,Odour Value,[7],"559,071"
C[C@]12CC[C@H]3[C@@H](CCC4=CC(=O)CC[C@@]43C)[C@@H]1CC[C@@H]2O [testosterone],Decrease of testosterone (positive control),"[5]; rat hepatocytes, LC-MS",rapid decrease
CC(C)(C)c1ccc(C(=O)O)cc1 [tert-butyl benzoic acid],inhibition of fatty acid synthesis,[8],inhibit
same,testicular effects,[9],cause testicular effects
same,inhibition of glucose synthesis,[10],inhibit
"CC(C=O)Cc1ccc(C(C)C)cc1 (centres unmarked) [Cyclamen aldehyde, 3-p-cumenyl-2-methylpropionaldehyde]",Odour Value,[7],"21,986"
